Like-named read-outs stand apart in the source and are kept apart here.

Series [1] can be described thus: Mean particle size of the PEG/PVP formulation after filtration. Particulars: diameter; PEG 3350/10% PVP pH 7.4 phosphate buffer formulation, filtered through 0.45 μm PTFE filter. The format is physicochemical. The protocol:
After formation of the composition for delivering a pharmaceutical agent to a patient, the composition has been successfully extruded through both 0.45 and […] nylon filters, yielding a particle size of around 500 or 300 nm, respectively. In addition, the compositions can be autoclaved. The compositions have also been freeze dried and can be reconstituted by the addition of water or a buffer.
To the melted phase were then added 3 mL of 10% PVP in pH 7.4 phosphate buffer with stirring. The mixture was stirred during cool-down to room temperature. Before administration, the formulation was filtered through a 0.45 μm PTFE filter. […] The final concentration was calculated to be 10 mg/mL.
Butyl-[2,5-dimethyl-7-(2,4,6-trimethyl-phenyl)-7H-pyrrolo[2,3-d]pyrimidin-4-yl]-ethyl-amine (CRF-1 receptor antagonist) was formulated in the PEG/PVP system as follows. Thirty milligrams of Butyl-[2,5-dimethyl-7-(2,4,6-trimethyl-phenyl)-7H-pyrrolo[2,3-d]pyrimidin- 4-yl]-ethyl-amine were dissolved in 1.5 g of molten (65° C.) PEG 3350. To the melted phase were then added 1.5 mL of 10% PVP in pH 7.4 phosphate buffer with stirring. The mixture was stirred during cool-down to room temperature. Before administration, the formulation was filtered through a 0.45 μm PTFE filter. […] The final concentration was calculated to be 10 mg/mL.

Series [2] is described as follows: Oral pharmacokinetics in fasted male Wistar rats. Particulars: for AUC(0-t) at 8 h / Cmax: rat, blood, po, 10 mg/kg, fasted male Wistar rats. The format is in vivo. On the procedure:
Single, 10-mg/kg oral gavage doses of the Butyl-[2,5-dimethyl-7-(2,4,6-trimethyl-phenyl)-7H-pyrrolo[2,3-d]pyrimidin- 4-yl]-ethyl-amine PEG/PVP formulation were given to 3 fasted male Wistar rats. In parallel, single, 10-mg/kg oral gavage doses of Butyl-[2,5-dimethyl-7-(2,4,6-trimethyl-phenyl)-7H-pyrrolo[2,3-d]pyrimidin- 4-yl]-ethyl-amine, as an aqueous suspension in 0.1% Tween 80, were administered to 3 additional fasted male Wistar rats. Blood samples were serially drawn over the 24-hour period following administration and assayed for Butyl-[2,5-dimethyl-7-(2,4,6-trimethyl-phenyl)-7H-pyrrolo[2,3-d]pyrimidin- 4-yl]-ethyl-amine concentrations.

The test system of series [3] is tumor-bearing mice. The series can be described thus: Deaths of tumor-bearing mice during 10 days oral gavage dosing. The format is in vivo. Particulars: 3 mice.
Excerpt: (§1) Single, 200-mg/kg daily oral gavage doses of the PEG/PVP formulation were given to 3 tumor-bearing mice for 10 days.
Series [4] concerns tumor-bearing mice. The series can be described thus: Tumor growth inhibition in tumor-bearing mice (change in tumor size from Day 1). To be noted: PEG/PVP 200 mg/kg daily vs DMA/lactate 400 mg/kg (200 mg/kg twice daily), oral gavage, 10 days. The format is in vivo.
Excerpt: as §1
The mark [5] stands for this setting: PEG/PVP emulsion vs 0.1% Tween 80 suspension, 10 mg/kg oral.

Take `CCCCN(CC)c1nc(C)nc2c1c(C)cn2-c1c(C)cc(C)cc1C` [Butyl-[2,5-dimethyl-7-(2,4,6-trimethyl-phenyl)-7H-pyrrolo[2,3-d]pyrimidin-4-yl]-ethyl-amine]: the Mean particle size result in series [1] is “approximately 420 nm”. Moreover, in series [2] (setting [5]), the “AUC(0-8), difference between the 2 dose groups” value is reported as “Neither Cmax, AUC(0-8), nor half-life differed significantly between the 2 dose groups”; the “Cmax, difference between the 2 dose groups” value is “Neither Cmax, AUC(0-8), nor half-life differed significantly between the 2 dose groups”; the “half-life, difference between the 2 dose groups” value is recorded as “Neither Cmax, AUC(0-8), nor half-life differed significantly between the 2 dose groups”. The AUC(0-t) at 8 h in series [2] (PEG/PVP emulsion, 10 mg/kg single oral gavage, read-out: AUC(0-8), PEG/PVP-dosed rats) was determined as 283 ng·h/mL. Besides, the Cmax in series [2] (PEG/PVP emulsion, 10 mg/kg single oral gavage, read-out: Mean Cmax, PEG/PVP emulsion group) amounted to 283 ng/mL. For the same compound, the AUC(0-t) at 8 h in series [2] (aqueous suspension in 0.1% Tween 80, 10 mg/kg single oral gavage, read-out: AUC(0-8), suspension-dosed) was found to be 267 ng·h/mL. Also, the Cmax in series [2] (aqueous suspension in 0.1% Tween 80, 10 mg/kg single oral gavage, read-out: Mean Cmax, 0.1% Tween group) is 267 ng/mL.

For `CNc1cc2c(Nc3cccc(Br)c3)ncnc2cn1` [N^4-(3-Bromo-phenyl)-N^6-methyl-pyrido[3,4-d]pyrimidine-4,6-diamine], the “mice that died, DMA/lactate system” value in the series on tumor-bearing mice [3] (DMA/lactate, 400 mg/kg (200 mg/kg oral gavage twice daily)) is reported as “all 3 mice dosed with the DMA/lactate system died”. The “mice that died, PEG/PVP preparation” value with tumor-bearing mice [3] (PEG/PVP, 200 mg/kg daily oral gavage) is recorded as “None of the mice given the PEG/PVP preparation died”. Further, in series [1], the Mean particle size entry is recorded as “approximately 400 nm”. Also, in the series with tumor-bearing mice [4], the “Tumor growth inhibition, ratio PEG/PVP emulsion to DMA/lactate preparation” value was determined as 4 fold.

(Values after patent US6207172A, “Composition for the delivery of a pharmaceutical agent to a patient” (Warner-Lambert Company, priority 1998, dated 2001).)
